# Source: US20240417486A1, “ASYMMETRIC BIS-BENZIMIDAZOLE STING AGONIST IMMUNOCONJUGATES AND USES THEREOF” (BOLT BIOTHERAPEUTICS, INC., priority 2021, published 2024)
# Biological target: human STING WT (6His-tagged STING protein) (Homo sapiens (Human), UniProt Q86WV6)
# Assay: HTRF binding assay (STING binding assay)
# Details: inhibition of d2-labeled 2',3'-cGAMP binding to 6His-tagged STING
# Description: Example 202 HTRF Binding Assay
# Asymmetric bis-benzimidazole compounds (BBI) of the invention were assessed in a biochemical homogeneous time resolved fluorescence (HTRF) binding assay adapted from the human STING WT binding assay (“HTRF, A guide to Homogeneous Time Resolved Fluorescence”, (2021) PerkinElmer Cisbio; Mathis, G. Clinical Chemistry, 41(9):1391-1397). Briefly, 6His-tagged STING protein was incubated with terbium cryptate-labeled anti-6His antibody, d2-labeled 2′,3′-cGAMP, and varying concentrations of test articles in a 384-well plate format. Donor and acceptor emission signals were measured for each well by plate reader at […], respectively, and the ratio of the signals used to calculate percent inhibition of d2-labeled 2′,3′-cGAMP, cyclic dinucleotide binding.
# human STING WT (6His-tagged STING protein), sequence (Q86WV6 whole entry): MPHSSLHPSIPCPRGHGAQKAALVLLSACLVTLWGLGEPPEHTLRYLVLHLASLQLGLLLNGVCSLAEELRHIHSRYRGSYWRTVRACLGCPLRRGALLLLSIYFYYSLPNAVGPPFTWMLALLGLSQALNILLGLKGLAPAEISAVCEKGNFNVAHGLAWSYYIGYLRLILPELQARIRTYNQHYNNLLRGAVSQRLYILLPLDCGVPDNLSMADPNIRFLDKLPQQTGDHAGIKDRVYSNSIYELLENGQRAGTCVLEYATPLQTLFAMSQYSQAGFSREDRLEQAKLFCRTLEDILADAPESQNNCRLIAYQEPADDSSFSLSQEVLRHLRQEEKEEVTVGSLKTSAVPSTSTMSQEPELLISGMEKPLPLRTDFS
row,Structure (SMILES),IC50
1,CCn1nc(C)cc1C(=O)Nc1nc2cc(C(N)=O)cc(OCCn3c(NC(=O)c4cc(C)nn4CC)nc4cc(C(N)=O)cc(OC)c43)c2n1C [BBI-5],210 nM
2,"CCn1nc(C)cc1C(=O)Nc1nc2cc(C(N)=O)cc(OCCCCn3c(NC(=O)c4cc(C)nn4CC)nc4cc(C(N)=O)cc(OC)c43)c2n1C [BBI-2, 1-[4-[6-carbamoyl-2-[(2-ethyl-5-methyl-pyrazole-3-carbonyl)amino]-3-methyl-benzimidazol-4-yl]oxybutyl]-2-[(2-ethyl-5-methyl-pyrazole-3-carbonyl)amino]-7-methoxy-benzimidazole-5-carboxamide]",73 nM
3,CCn1nc(C)cc1C(=O)Nc1nc2cc(C(N)=O)cc(OCCCn3c(NC(=O)c4cc(C)nn4CC)nc4cc(C(N)=O)ccc43)c2n1C [BBI-4],440 nM
4,CCn1nc(C)cc1C(=O)Nc1nc2cc(C(N)=O)cc(OCCCn3c(NC(=O)c4cc(C)nn4CC)nc4cc(C(N)=O)cc(OCCCN5CCNCC5)c43)c2n1C [BBI-6],51 nM
5,"CCn1nc(C)cc1C(=O)Nc1nc2cc(C(N)=O)cc(OCCCCn3c(NC(=O)c4cc(C)nn4CC)nc4cc(C(N)=O)cc(OCCCN5CCNCC5)c43)c2n1C [BBI-3, 1-(4-((5-carbamoyl-2-(1-ethyl-3-methyl-1H-pyrazole-5-carboxamido)-1-methyl-1H-benzo[d]imidazol-7-yl)oxy)butyl)-2-(1-ethyl-3-methyl-1H-pyrazole-5-carboxamido)-7-(3-(piperazin-1-yl)propoxy)-1H-benzo[d]imidazole-5-carboxamide]",250 nM
6,CCn1nc(C)cc1C(=O)Nc1nc2cc(C(N)=O)cc(OC/C=C/Cn3c(NC(=O)c4cc(C)nn4CC)nc4cc(C(N)=O)cc(OCCCN5CCNCC5)c43)c2n1C [BBI-7],150 nM
7,"CCn1nc(C)cc1C(=O)Nc1nc2cc(C(N)=O)cc(OCCCn3c(NC(=O)c4cc(C)nn4CC)nc4cc(C(N)=O)cc(OC)c43)c2n1C [BBI-1, 1-(3-((5-carbamoyl-2-(1-ethyl-3-methyl-1H-pyrazole-5-carboxamido)-1-methyl-1H-benzo[d]imidazol-7-yl)oxy)propyl)-2-(1-ethyl-3-methyl-1H-pyrazole-5-carboxamido)-7-methoxy-1H-benzo[d]imidazole-5-carboxamide]",57 nM
